Key:
[1] = Compound was evaluated for the partition coefficient in octanol/water; format: physicochemical
[2] = Compound was evaluated for the partition coefficient in octanol/water (1-octanol / 10 mM phosphate buffer at pH 7.4); format: physicochemical

| K [1] | K [2] | Compound |
| --- | --- | --- |
| 0.8 | – | O=CCCC1([N+](=O)[O-])CCCC1 |
| 1.1 | – | CCCCC(C)(CCC=O)[N+](=O)[O-] (centres undefined) |
| – | 0.02 | CC1(C)CCC=[N+]1[O-] |
| 4.9 | – | CCCC(CCC)(CCC=O)[N+](=O)[O-] |

— ChEMBL document CHEMBL1123380, “Spin trapping of superoxide and hydroxyl radicals with substituted pyrroline 1-oxides” (J Med Chem, 1986)
